# Read-outs that look alike come from different tables or passages of the source.
# Tests used:
# [1] = system: Phospholipase A2; assay: Phospholipase A2 inhibition (myristic acid liberated from myristyllecithin, HPLC); format: biochemical
# Description: Prior to the determination of the activity of phospholipase A by determining myristic acid liberated from a substrate (myristyllecithin) by said enzyme by high-performance liquid chromatography, the following test compounds were added in amounts as shown in Table 1 to examine the effects thereof.
# CoQ10 was employed for the purpose of comparison. [drawing 17]
# Each value in Table 1 represents the evaluation of the corresponding compound assuming the value of a physiological saline solution as 100 and indicates the phospholipase A2 inhibition activity thereof.
# [2] = system: human platelets; assay: Repression of human platelet agglutination in vitro (PRP; PAF, collagen or ADP as inducer); format: cell-based; details: for inhibition at 100 µM: test compound 100 μM; for inhibition at 200 µM: test compound 200 μM; for inhibition at 20 µM: test compound 20 μM; for inhibition at 50 µM: test compound 50 μM
# Description: Effects of repressing human platelet agglutination of the compounds of the present invention were examined in vitro. Platelet agglutination test was carried out in the following manner with the use of PAF (platelet activating factor; 1-alkyl-2-acetyl-sn-glycero-3-phosphocholine), collagen and ADP as inducers.
# Blood was collected from the venae brachiales of a healthy adult in an amount of nine parts by volume to one part by volume of a 3.8% sodium citrate solution. The blood was centrifuged at 100 ×g for eight min and PRP separated as the supernatant was collected.
# To 0.2 ml of the PRP as prepared above, 25 μl portions of test solutions in various concentrations were added and each mixture was incubated at 37° C. for three min. 25 μl of the abovementioned inducer solution was added thereto to induce agglutination. PAF, collagen and ADP were added as inducers to the final concentrations of 100 ng/ml, 1 μg/ml and 5 μM, respectively. Platelet agglutination was determined with an aggregometer (a product of Niko Bioscience Co., Ltd.) by the method of Mustard et al. (cf. Mustard, J.F., Hegaldt, B., Rosewell, H.C., MacMillan, R.C., J. Lab. Clin. Med., 64, 548-559 (1964)). The repressing effect of each test compound was evaluated as the repression ratio with the use of PRP containing vehicle as control.
# (3) The following compounds were tested. Compounds A to D are as defined in Experimental Example 1. [drawing 18]
# Each figure in Table 2 represents the repression ratio (%) of the corresponding compound.
# [3] = inducer ADP 5 μM, read-out: repression ratio of platelet agglutination, ADP
# [4] = inducer PAF 100 ng/ml, read-out: repression ratio of platelet agglutination, PAF
# [5] = inducer collagen 1 μg/ml, read-out: repression ratio of platelet agglutination, Collagen
Compound,Phospholipase A activity (physiological saline = 100) ([1]; final concentration 43 μM) [%],"inhibition at 100 µM [2, 3] [%]","inhibition at 200 µM [2, 3] [%]","inhibition at 20 µM [2, 4] [%]","inhibition at 100 µM [2, 4] [%]","inhibition at 200 µM [2, 4] [%]","inhibition at 20 µM [2, 5] [%]","inhibition at 100 µM [2, 5] [%]",Phospholipase A activity (physiological saline = 100) ([1]; final concentration 4 μM) [%],"inhibition at 20 µM [2, 3] [%]","inhibition at 50 µM [2, 3] [%]","inhibition at 50 µM [2, 4] [%]"
"COC1=C(OC)C(=O)C(C/C=C(\C)CC/C=C(\C)CC/C=C(\C)CC/C=C(\C)CC/C=C(\C)CC/C=C(\C)CC/C=C(\C)CC/C=C(\C)CC/C=C(\C)CCC=C(C)C)=C(C)C1=O [CoQ10, Ubidecarenone, reference compound]",56,8.7,11.3,8,16.2,19,6.5,18.7,,,,
COC1=C(OC)C(=O)C(C/C=C(\C)CC/C=C(\C)CC/C=C(\C)CC/C=C(\C)C(=O)O)=C(C)C1=O [Compound A],,22.1,23.1,27.8,42.6,52.9,62.4,86.6,66,12.4,2.1,36
COc1c(O)c(C)c(C/C=C(\C)CC/C=C(\C)CC/C=C(\C)CC/C=C(\C)C(=O)O)c(OC)c1OC [Compound B],,21.5,24.2,21.6,38.4,51.6,21.4,69.6,55,12.9,24.8,36.8
COC1=C(OC)C(=O)C(C/C=C(\C)CC/C=C(\C)CC/C=C(\C)C(=O)O)=C(C)C1=O [Compound C],,,18.3,3.5,12.2,47.3,3.2,17.2,25,,,3.4
COc1c(O)c(C)c(C/C=C(\C)CC/C=C(\C)CC/C=C(\C)C(=O)O)c(OC)c1OC [Compound D],,13.5,21.3,4.5,26,51.5,2.8,39.3,24,,9,23.8
COc1c(O)c(C)c(C/C=C(\C)CC/C=C(\C)C(=O)O)c(OC)c1OC [Compound E],,10.7,23,3.03,32.5,45.4,45.4,75.8,,,,28.1
COc1c(O)c(C)c(C/C=C(\C)CC/C=C(\C)CC/C=C(\C)CC/C=C(\C)CC/C=C(\C)C(=O)O)c(OC)c1OC [Compound F],,6.7,26.3,,9.3,49,5,15.8,,,,5.9
COc1c(O)c(C)c(C/C=C(\C)CC/C=C(\C)CC/C=C(\C)CC/C=C(\C)CC/C=C(\C)CC/C=C(\C)C(=O)O)c(OC)c1OC [Compound G],,14,23.1,,12.8,59.8,,30.2,,,,8.1
COC1=C(OC)C(=O)C(C/C=C(\C)CC/C=C(\C)C(=O)O)=C(C)C1=O [Compound H],,8.8,18.2,8.8,37.8,47.3,38.1,84.3,,,,28.2
COC1=C(OC)C(=O)C(C/C=C(\C)CC/C=C(\C)CC/C=C(\C)CC/C=C(\C)CC/C=C(\C)C(=O)O)=C(C)C1=O [Compound I],,3.9,22,2.8,10.8,53.3,,24.1,,,,3.9
COC1=C(OC)C(=O)C(C/C=C(\C)CC/C=C(\C)CC/C=C(\C)CC/C=C(\C)CC/C=C(\C)CC/C=C(\C)C(=O)O)=C(C)C1=O [Compound J],,27.1,30.1,6,24.9,65.3,,22,,,16.5,2.7

# Reference: patent US4992469A, “Method of obtaining an antiplatelet effect” (Eisai Co., Ltd., priority 1984, dated 1991)
